From patent US6503943B1, “Platinum complex, its preparation and therapeutic application” (priority 1998, dated 2003)
“And” between values parts separate entries of the source, which are not always exact repeats. Equal values may be shown once.

Key:
leucaemia L1210 [1] = experiment: Antitumor effect at animals with leucaemia L1210, continual regimen (Example 7); assay type: in vivo, mice DBA2; conditions: for Survival (in % of control) / Survival time, Geom. mean: 1th-9th day; for Evaluation of antitumor effect (survival time versus control), in words / Increase of survival time value in comparison with the control group: in the dosages used, p.o.×9
[2] = tested on: mammal adenocarcinoma MC2111; experiment: Antitumor effect at animals with solid form of mammal adenocarcinoma MC2111 (Example 9); assay type: in vivo, mice DBA1; conditions: for Tumor mass (%) of control / Tumor mass, Arithm. mean: tumor size 14th day, mass from regression
[3] = tested on: ascitic form of Ehrlich tumor (ATE); experiment: Antitumor effect at animals with ascitic form of Ehrlich tumor (ATE) (Example 11);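 on all read-outs here: half of each dose group killed on day 10, tumor mass taken as animal mass lost on ascites aspiration, ascitocrit by microhematocrit centrifuge, rest followed daily for survival versus reference group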; conditions: for Survival (in % of control) / Survival time, Geom. mean / Total ascitocrit (%) of control / Total ascitocrit (mass of cell fraction of a tumor), Arithm. mean / Tumor mass (%) of control / Tumor mass, Arithm. mean: 1th-9th day; for Total ascitocrit (%) of control / Total ascitocrit (mass of cell fraction of a tumor), Arithm. mean / Tumor mass (%) of control / Tumor mass, Arithm. mean: dissection 10th day; for Evaluation of antitumor effect (survival time versus control), in words: p.o.×9, Platidiam 8 and 4 mg/kg s.c.×1, Tab. 8.1
Method: After termination of application, one half of animals in each dosage group was destroyed at 10th day after inoculation in ether narcosis, the ascits were sucked out after laparotomy and the mass of a tumor at each of the animals was determined from the difference of mass before and after sucking out the ascit. Ascitocrit in ascitic liquor of single animals was determined on microhematocrit centrifuge in heparinized capillary tubes of 75 mm length. The value of “total ascitocrit”corresponding to a mass of cells in ascitic liquor has been determined from percentage of ascitocrit and mass of the tumor. Remaining animals were left for monitoring the survival time. In these animals, the survival time was monitored on daily basis. The dependence of the survival time value on the applied dose was evaluated in comparison with the reference group.
The single estimated time points as biological responses were evaluated by a test of equivalence of two mean values (Student's t-test). Geometric mean was calculated from single values of survival time, arithmetic means were calculated from single values of tumor mass and total ascitocrit. Difference between mean values was evaluated by a test of equivalence of two mean values (Student's t-test) under presumption of normal probability distribution of mass values as well as of total ascitocrit values and of logarithmic/normal distribution of temporal values, all under presumption of possible unknown disseminations. Those diferences in mean values, whose values of a test criterium exceeded the critical value at the 5% and 1% significance level were evaluated as statistically significant and highly statistically significant, respectively.
The optimum dosage has been calculated from values of survival time according to the proportional risk model of Cox (Carter et al., 1982). Parameters of Weinbull distribution and logarithmic transformation of introductory data were used for estimation of a basic and modified survival function from experimental data.

leucaemia L1210 [4] = experiment: Antitumor effect at animals with leucaemia L1210, single administration (Example 4); assay type: in vivo, mice DBA2; conditions: mouse, in vivo
leucaemia L1210 [5] = experiment: Antitumor effect at animals with leucaemia L1210, intermitent administration 3x (Example 5); assay type: in vivo, mice DBA2; conditions: for Survival (in % of control) / Survival time, Geom. mean: 1st, 5th and 9th day
leucaemia L1210 [6] = experiment: Antitumor effect at animals with leucaemia L1210, continual versus intermitent regimen (Example 6); assay type: in vivo, mice DBA2
Gardner lymphosarcoma = experiment: Antitumor effect at animals with solid form of Gardner lymphosarcoma (Example 8); assay type: in vivo, mice C3H; conditions: 5th day, tumors weighed 14th day
[7] = tested on: ascitic form of Ehrlich tumor (ATE); experiment: Antitumor effect at animals with ascitic form of Ehrlich tumor (ATE) (Example 10); assay type: in vivo, mice ICR; conditions: for Survival (in % of control) / Survival time, Geom. mean / Tumor mass (%) of control / Tumor mass, Arithm. mean: 1st-9th day; for Tumor mass (%) of control / Tumor mass, Arithm. mean: dissection 10th day
[8] = 3 mg/kg/day p.o. 9x, 5th-13 day
[9] = 6 mg/kg/day p.o. 9x, 5th-13 day
[10] = 12 mg/kg/day p.o. 9x, 5th-13 day
[11] = 9 mg/kg/day p.o. 3x, 1,5,9th day (lowest dose group)
[12] = 12 mg/kg/day p.o. 9x, 1-9th day
[13] = 18 mg/kg/day p.o. 3x, 1,5,9th day
[14] = 36 mg/kg/day p.o. 3x, 1,5,9th day

CC(=O)[O][Pt]([NH2])([Cl])([Cl])([NH]C12CC3CC(C)(CC(C)(C3)C1)C2)[O]C(C)=O [LA-15, af-bis(Acetato)-b-(1amino-3.5-dimethyladamantane)-c-ammin-de-dichloroplatinum (IV) Complex]
Survival (in % of control) (leucaemia L1210 [1]; 3 mg/kg/day p.o. 9x): 180%
Survival time, Geom. mean (leucaemia L1210 [1]; 3 mg/kg/day p.o. 9x): 40.5 days
Survival (in % of control) (leucaemia L1210 [1]; 6 mg/kg/day p.o. 9x): 217%
Survival time, Geom. mean (leucaemia L1210 [1]; 6 mg/kg/day p.o. 9x): 48.8 days
Survival (in % of control) (leucaemia L1210 [1]; 12 mg/kg/day p.o. 9x): 130%
Survival time, Geom. mean (leucaemia L1210 [1]; 12 mg/kg/day p.o. 9x): 29.3 days
Evaluation of antitumor effect (survival time versus control), in words (leucaemia L1210 [1]): antitumor effective
Increase of survival time value in comparison with the control group (leucaemia L1210 [1]): 130%
Survival (in % of control) [2, 8]: 117%
Survival time, Geom. mean [2, 8]: 25.4 days
Tumor mass (%) of control [2, 8]: 90%
Tumor mass, Arithm. mean [2, 8]: 4.19 g
Survival (in % of control) [2, 9]: 127%
Survival time, Geom. mean [2, 9]: 27.6 days
Tumor mass (%) of control [2, 9]: 85%
Tumor mass, Arithm. mean [2, 9]: 3.95 g
Survival (in % of control) [2, 10]: 118%
Survival time, Geom. mean [2, 10]: 25.5 days
Tumor mass (%) of control [2, 10]: 80%
Tumor mass, Arithm. mean [2, 10]: 3.74 g
Survival (in % of control) ([3]; 3 mg/kg/day p.o. 9x): 99%
Survival time, Geom. mean ([3]; 3 mg/kg/day p.o. 9x): 8.8 days
Total ascitocrit (%) of control ([3]; 3 mg/kg/day p.o. 9x): 123%
Total ascitocrit (mass of cell fraction of a tumor), Arithm. mean ([3]; 3 mg/kg/day p.o. 9x): 0.84 g
Tumor mass (%) of control ([3]; 3 mg/kg/day p.o. 9x): 89%
Tumor mass, Arithm. mean ([3]; 3 mg/kg/day p.o. 9x): 3.51 g
Survival (in % of control) ([3]; 6 mg/kg/day p.o. 9x): 108%
Survival time, Geom. mean ([3]; 6 mg/kg/day p.o. 9x): 9.6 days
Total ascitocrit (%) of control ([3]; 6 mg/kg/day p.o. 9x): 59%
Total ascitocrit (mass of cell fraction of a tumor), Arithm. mean ([3]; 6 mg/kg/day p.o. 9x): 0.40 g
Tumor mass (%) of control ([3]; 6 mg/kg/day p.o. 9x): 53%
Tumor mass, Arithm. mean ([3]; 6 mg/kg/day p.o. 9x): 2.08 g
Mean value of the mass of cell fraction of the tumor (total ascitocrit) versus control, in words ([3]; 6 mg/kg/day p.o.×9): statistically significant lower
Survival (in % of control) ([3]; 12 mg/kg/day p.o. 9x): 97%
Survival time, Geom. mean ([3]; 12 mg/kg/day p.o. 9x): 8.6 days
Total ascitocrit (%) of control ([3]; 12 mg/kg/day p.o. 9x): 120%
Total ascitocrit (mass of cell fraction of a tumor), Arithm. mean ([3]; 12 mg/kg/day p.o. 9x): 0.82 g
Tumor mass (%) of control ([3]; 12 mg/kg/day p.o. 9x): 96%
Tumor mass, Arithm. mean ([3]; 12 mg/kg/day p.o. 9x): 3.77 g
Evaluation of antitumor effect (survival time versus control), in words [3]: didnot increase the survival time statistically significant

CC(=O)[O-].CC(=O)[O-].N.NC12CC3CC(CC(C3)C1)C2.[Cl-].[Cl-].[Pt+4] [LA-12, Af-bis (Acetato)-b-(1-Adamantylamine)-c-ammin-de-dichloroplatinum (IV) Complex]
Increase of mean value of survival time in comparison with the untreated control group (leucaemia L1210 [4]): 55%
Survival (in % of control) (leucaemia L1210 [5]; 2 mg/kg/day p.o. 3x): >121%
Survival time, Geom. mean (leucaemia L1210 [5]; 2 mg/kg/day p.o. 3x): 19.0 days
Survival (in % of control) (leucaemia L1210 [5]; 4 mg/kg/day p.o. 3x): 147%
Survival time, Geom. mean (leucaemia L1210 [5]; 4 mg/kg/day p.o. 3x): 23.0 days
Survival (in % of control) (leucaemia L1210 [5]; 4 mg/kg/day p.o. 3x, listed as LA-] 2): 148%
Survival (in % of control) (leucaemia L1210 [5]; 8 mg/kg/day p.o. 3x): 118%
Survival time, Geom. mean (leucaemia L1210 [5]; 8 mg/kg/day p.o. 3x): 18.5 days
Optimum dose as calculated according to Carter (leucaemia L1210 [5]; intermitent oral administration 3x): 4.55 mg/kg/day p.o.×3
Survival (in % of control) (leucaemia L1210 [6]; 3 mg/kg/day p.o. 9x, 1-9th day): 96%
Survival time, Geom. mean (leucaemia L1210 [6]; 3 mg/kg/day p.o. 9x, 1-9th day): 11.1 days
Increase of survival time value in comparison with the control group (leucaemia L1210 [6]; 6 mg/kg p.o.×9): 130%
Survival (in % of control) (leucaemia L1210 [6]; 6 mg/kg/day p.o. 9x, 1-9th day): 230%
Survival time, Geom. mean (leucaemia L1210 [6]; 6 mg/kg/day p.o. 9x, 1-9th day): 16.6 days
Survival (in % of control) (leucaemia L1210 [6]; [11]): 115%
Survival time, Geom. mean (leucaemia L1210 [6]; [11]): 13.3 days
Survival (in % of control) (leucaemia L1210 [6]; [12]): 118%
Survival time, Geom. mean (leucaemia L1210 [6]; [12]): 13.6 days
Survival (in % of control) (leucaemia L1210 [6]; [13]): 158%
Survival time, Geom. mean (leucaemia L1210 [6]; [13]): 18.3 days
Survival (in % of control) (leucaemia L1210 [6]; [14]): 137%
Survival time, Geom. mean (leucaemia L1210 [6]; [14]): 15.9 days
Evaluation of antitumor effect (survival time versus control), in words (leucaemia L1210 [6]; LA-12 6 mg/kg p.o.×9, Platidiam 8 and 4 mg/kg s.c.×1, LA-2 any of the dosage groups): antitumor effective
Survival (in % of control) (leucaemia L1210 [1]; 3 mg/kg/day p.o. 9x): 198%
Survival time, Geom. mean (leucaemia L1210 [1]; 3 mg/kg/day p.o. 9x): 44.6 days
Survival (in % of control) (leucaemia L1210 [1]; 6 mg/kg/day p.o. 9x): 172%
Survival time, Geom. mean (leucaemia L1210 [1]; 6 mg/kg/day p.o. 9x): 38.8 days
Survival (in % of control) (leucaemia L1210 [1]; 12 mg/kg/day p.o. 9x): 210%
Survival time, Geom. mean (leucaemia L1210 [1]; 12 mg/kg/day p.o. 9x): 47.2 days
Evaluation of antitumor effect (survival time versus control), in words (leucaemia L1210 [1]): antitumor effective
Increase of survival time value in comparison with the control group (leucaemia L1210 [1]): 130%
Tumor mass (%) of control (Gardner lymphosarcoma; 2 mg/kg p.o. 1x): 80%
Tumor mass, Arithm. mean (Gardner lymphosarcoma; 2 mg/kg p.o. 1x): 5.02 g
Tumor mass (%) of control (Gardner lymphosarcoma; 8 mg/kg p.o. 1x): 88%
Tumor mass, Arithm. mean (Gardner lymphosarcoma; 8 mg/kg p.o. 1x): 5.46 g
Tumor mass (%) of control (Gardner lymphosarcoma; 32 mg/kg p.o. 1x): 77%
Tumor mass, Arithm. mean (Gardner lymphosarcoma; 32 mg/kg p.o. 1x): 4.80 g
Tumor mass (%) of control [2, 8]: 86%
Tumor mass, Arithm. mean [2, 8]: 4.02 g
Tumor mass (%) of control [2, 9]: 80%
Tumor mass, Arithm. mean [2, 9]: 3.73 g
Tumor mass (%) of control [2, 10]: 87%
Tumor mass, Arithm. mean [2, 10]: 4.05 g
Survival (in % of control) ([2]; mouse, in vivo): 116% and 117%
Survival time, Geom. mean ([2]; mouse, in vivo): 25.1 days and 25.3 days and 27.7 days
Evaluation of antitumor effect, in words ([2]; p.o.×9 12, 6, 3 mg/kg/day, Platidiam 8 and 4 mg/kg s.c. once): antitumor effective
Survival (in % of control) ([7]; 3 mg/kg/day p.o. 9x): 157%
Survival time, Geom. mean ([7]; 3 mg/kg/day p.o. 9x): 18.0 days
Tumor mass (%) of control ([7]; 3 mg/kg/day p.o. 9x): 104%
Tumor mass, Arithm. mean ([7]; 3 mg/kg/day p.o. 9x): 2.76 g
Survival (in % of control) ([7]; 6 mg/kg/day p.o. 9x): 219%
Survival time, Geom. mean ([7]; 6 mg/kg/day p.o. 9x): 25.1 days
Tumor mass (%) of control ([7]; 6 mg/kg/day p.o. 9x): 100%
Tumor mass, Arithm. mean ([7]; 6 mg/kg/day p.o. 9x): 2.66 g
Survival (in % of control) ([7]; 12 mg/kg/day p.o. 9x): 135%
Survival time, Geom. mean ([7]; 12 mg/kg/day p.o. 9x): 15.5 days
Tumor mass (%) of control ([7]; 12 mg/kg/day p.o. 9x): 84%
Tumor mass, Arithm. mean ([7]; 12 mg/kg/day p.o. 9x): 2.23 g
Significance of mean survival time increase in comparison with untreated control (p≦0.01), in words ([7]; Tab. 7-2): atatistically highly significant
Survival (in % of control) ([3]; 3 mg/kg/day p.o. 9x): 143%
Survival time, Geom. mean ([3]; 3 mg/kg/day p.o. 9x): 12.7 days
Total ascitocrit (%) of control ([3]; 3 mg/kg/day p.o. 9x): 100%
Total ascitocrit (mass of cell fraction of a tumor), Arithm. mean ([3]; 3 mg/kg/day p.o. 9x): 0.68 g
Tumor mass (%) of control ([3]; 3 mg/kg/day p.o. 9x): 110%
Tumor mass, Arithm. mean ([3]; 3 mg/kg/day p.o. 9x): 4.32 g
Survival (in % of control) ([3]; 6 mg/kg/day p.o. 9x): 153%
Survival time, Geom. mean ([3]; 6 mg/kg/day p.o. 9x): 13.6 days
Total ascitocrit (%) of control ([3]; 6 mg/kg/day p.o. 9x): 99%
Total ascitocrit (mass of cell fraction of a tumor), Arithm. mean ([3]; 6 mg/kg/day p.o. 9x): 0.68 g
Tumor mass (%) of control ([3]; 6 mg/kg/day p.o. 9x): 78%
Tumor mass, Arithm. mean ([3]; 6 mg/kg/day p.o. 9x): 3.07 g
Survival (in % of control) ([3]; 12 mg/kg/day p.o. 9x): 134%
Survival time, Geom. mean ([3]; 12 mg/kg/day p.o. 9x): 11.9 days
Total ascitocrit (%) of control ([3]; 12 mg/kg/day p.o. 9x): 64%
Total ascitocrit (mass of cell fraction of a tumor), Arithm. mean ([3]; 12 mg/kg/day p.o. 9x): 0.44 g
Tumor mass (%) of control ([3]; 12 mg/kg/day p.o. 9x): 47%
Tumor mass, Arithm. mean ([3]; 12 mg/kg/day p.o. 9x): 1.86 g
Evaluation of antitumor effect (survival time versus control), in words [3]: didnot increase the survival time statistically significant
